Test results as given in patent publication US11140318B2, “Laser endoscope device” (Mie University, priority 2016, dated 2021).
Like-named read-outs stand apart in the source and are kept apart here.

Assays:
healthy mucosa tissue = conditions: mouse, in vivo
Excerpt: (§1) The finding 3 will be described with reference to a case where a cell morphology in a living body is imaged under the multiphoton laser microscope (FV1000MPE manufactured by Olympus Corporation) while changing the focal point position and a plurality of captured images are cut in a predetermined position to create a cross-sectional image (tomographic image). A laboratory mouse was used as the living body.
(§2) As the stain for staining the cell group, both the stain containing curcumin and the stain containing Acid Red (red #106) were used. The staining period was set at 5 minutes. The staining period is the period for which the stain is caused to be in contact with the cell group and the dye of the stain is allowed to penetrate into the cells themselves or the gaps between the cells.

cancer tissue = conditions: mouse, in vivo
Excerpt: as §1, §2

Compound	depth to which the tissue is stained (healthy mucosa tissue)	depth to which the tissue is stained (cancer tissue)	depth to which the tissue is stained (healthy mucosa tissue; 5 min)	depth to which the tissue is stained (cancer tissue; 5 min)
CCN(CC)c1ccc2c(-c3ccc(S(=O)(=O)[O-])cc3S(=O)(=O)[O-])c3ccc(=[N+](CC)CC)cc-3oc2c1.[Na+] [Acid Red dye, Acid Red]	about 70 μm	about 40 μm		
COc1cc(/C=C/C(=O)CC(=O)/C=C/c2ccc(O)c(OC)c2)ccc1O [curcumin dye, curcumin]			about 20 μm	about 40 μm
